The source of these data is PMC6750098, “Mechanism of DNA Lesion Homing and Recognition by the Uvr Nucleotide Excision Repair System” (Research, 2019).

For assay [1], the target named is T1, UvrB (Δ594-658, domains 1a-3) ([Bacillus] caldotenax, UniProt P56981, C145S/C211S/T251C/C303S).
T1 construct: residues 1-593 (domain 4 deleted, Δ594-658), all native Cys to Ser, His-tag cleaved with TEV protease, expressed in E. coli BL21(DE3) pLysS, disulfide-crosslinked to duplex DNA
In words: X-ray crystal structure (UvrB-dsDNA-ADP·Pi). The settings on record: crystals grown with 2 mM ATP and 5 mM MgCl2, pH 6.5, 20 °C; protein disulfide-crosslinked to 20-mer dsDNA; ATP binding site; 2.6 Å.

For assay [2], the target named is T1, UvrB (Δ594-658, domains 1a-3). In words: ATP hydrolysis in crystallo, seen in crystal structure. It counts as biochemical. The settings on record: 2 mM ATP, 5 mM MgCl2, pH 6.5, 20 °C; protein disulfide-crosslinked to 20-mer dsDNA.

Molecules are shown by their SMILES.

T1 sequence (P56981 1-593 C145S/C211S/T251C/C303S): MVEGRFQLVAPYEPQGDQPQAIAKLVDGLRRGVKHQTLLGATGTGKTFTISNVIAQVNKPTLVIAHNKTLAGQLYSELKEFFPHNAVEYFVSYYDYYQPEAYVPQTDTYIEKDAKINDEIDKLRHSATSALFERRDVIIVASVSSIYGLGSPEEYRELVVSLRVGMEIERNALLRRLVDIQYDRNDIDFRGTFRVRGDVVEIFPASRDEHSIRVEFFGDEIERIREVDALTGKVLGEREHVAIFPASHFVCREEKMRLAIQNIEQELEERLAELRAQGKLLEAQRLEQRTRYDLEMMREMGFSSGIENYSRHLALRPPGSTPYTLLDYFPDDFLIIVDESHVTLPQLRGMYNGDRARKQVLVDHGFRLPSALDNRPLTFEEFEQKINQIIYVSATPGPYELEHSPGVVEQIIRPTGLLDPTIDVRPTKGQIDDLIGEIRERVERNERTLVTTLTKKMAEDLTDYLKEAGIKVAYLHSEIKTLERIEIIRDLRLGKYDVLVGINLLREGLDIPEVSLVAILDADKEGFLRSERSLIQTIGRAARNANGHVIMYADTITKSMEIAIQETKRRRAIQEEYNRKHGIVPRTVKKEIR

On to `Nc1ncnc2c1ncn2[C@@H]1O[C@H](COP(=O)(O)OP(=O)(O)O)[C@@H](O)[C@H]1O` [ADP], for which the “X-ray crystal structure (UvrB-dsDNA-ADP.Pi)” value in assay [1] was “the electron density corresponds to ADP plus inorganic phosphate”.
As to `Nc1ncnc2c1ncn2[C@@H]1O[C@H](COP(=O)(O)OP(=O)(O)OP(=O)(O)O)[C@@H](O)[C@H]1O` [ATP], the “ATP hydrolysis in crystallo, seen in crystal structure” value in assay [2] is “hence we conclude that the ATPase site retains activity in our crosslinked complex”.
